pIC50: −log10 of the molar value.
system: Mycobacterium tuberculosis; assay: Antimycobacterial activity against Mycobacterium tuberculosis H37Rv after 6 days by luciferase reporter gene assay; type: functional, organism-based; conditions: 144 h

| SMILES | pIC50 | IC90 [µM] | IC99 [µM] |
| --- | --- | --- | --- |
| FC(F)(F)c1ccc(Cl)c(N=NNc2cc(C(F)(F)F)ccc2Cl)c1 | 4.01 | > 100 | > 100 |
| FC(F)(F)c1cc(Cl)ccc1/N=N/Nc1ccc(Cl)cc1C(F)(F)F | 4.03 | > 100 | > 100 |
| COc1ccc(/C=C/C(=O)N(/N=N/c2cc(C(F)(F)F)ccc2Cl)c2cc(C(F)(F)F)ccc2Cl)c(OC)c1 | 4.14 | > 100 | > 100 |
| COc1ccc(/C=C/C(=O)N(/N=N/c2ccc(Cl)c(C(F)(F)F)c2)c2ccc(Cl)c(C(F)(F)F)c2)c(OC)c1 | 4.28 | 80.8 | 84.4 |
| COc1cc(/C=C/C(=O)N(/N=N/c2ccc(Cl)c(C(F)(F)F)c2)c2ccc(Cl)c(C(F)(F)F)c2)cc(OC)c1 | 4.15 | > 100 | > 100 |
| Fc1ccc(C(F)(F)F)cc1/N=N/Nc1cc(C(F)(F)F)ccc1F | 4.23 | > 100 | > 100 |
| N#Cc1c(F)cccc1/N=N/Nc1cccc(F)c1C#N | 4.21 | > 100 | > 100 |
| Fc1ccc(/N=N/Nc2ccc(F)cc2C(F)(F)F)c(C(F)(F)F)c1 | 4.07 | > 100 | > 100 |
| N#Cc1cc(/N=N/Nc2ccc(F)c(C#N)c2)ccc1F | < 4.00 | > 100 | > 100 |
| Clc1ccc(/N=N/Nc2ccc(Cl)cc2Cl)c(Cl)c1 | < 4.00 | > 100 | > 100 |
| COc1ccc(/C=C/C(=O)N(/N=N/c2ccc(Cl)cc2C(F)(F)F)c2ccc(Cl)cc2C(F)(F)F)c(OC)c1 | 4.08 | > 100 | > 100 |
| NNC(=O)c1ccncc1 [ISONIAZID] | 7.40 | 0.11 | 0.13 |
